From paper PMC1887774 (The Journal of General Physiology, 1998)
“Also recorded” adds a separate entry of the source.

How the values were obtained:
[1] = target: T1, rat brain type IIA sodium channels (F1489Q α subunit + wild-type β1) (Rattus norvegicus, UniProt P04775, F1489Q/N209D); format: biochemical, rat (expressed in Xenopus laevis oocytes)
[2] = target: T1, rat brain type IIA sodium channels (F1489Q α subunit + wild-type β1); format: biochemical, rat (expressed in Xenopus laevis oocytes); remark: listed apart in the source
[3] = tested on: cardiac sodium channel with mutations in M1651 and M1652; details: whole-cell recording, ref Tang et al. (1996), cited from earlier work
sodium channels = details: ref Eaholtz et al., 1994, cited from earlier work

T1 sequence (P04775 whole entry N209D/F1489Q): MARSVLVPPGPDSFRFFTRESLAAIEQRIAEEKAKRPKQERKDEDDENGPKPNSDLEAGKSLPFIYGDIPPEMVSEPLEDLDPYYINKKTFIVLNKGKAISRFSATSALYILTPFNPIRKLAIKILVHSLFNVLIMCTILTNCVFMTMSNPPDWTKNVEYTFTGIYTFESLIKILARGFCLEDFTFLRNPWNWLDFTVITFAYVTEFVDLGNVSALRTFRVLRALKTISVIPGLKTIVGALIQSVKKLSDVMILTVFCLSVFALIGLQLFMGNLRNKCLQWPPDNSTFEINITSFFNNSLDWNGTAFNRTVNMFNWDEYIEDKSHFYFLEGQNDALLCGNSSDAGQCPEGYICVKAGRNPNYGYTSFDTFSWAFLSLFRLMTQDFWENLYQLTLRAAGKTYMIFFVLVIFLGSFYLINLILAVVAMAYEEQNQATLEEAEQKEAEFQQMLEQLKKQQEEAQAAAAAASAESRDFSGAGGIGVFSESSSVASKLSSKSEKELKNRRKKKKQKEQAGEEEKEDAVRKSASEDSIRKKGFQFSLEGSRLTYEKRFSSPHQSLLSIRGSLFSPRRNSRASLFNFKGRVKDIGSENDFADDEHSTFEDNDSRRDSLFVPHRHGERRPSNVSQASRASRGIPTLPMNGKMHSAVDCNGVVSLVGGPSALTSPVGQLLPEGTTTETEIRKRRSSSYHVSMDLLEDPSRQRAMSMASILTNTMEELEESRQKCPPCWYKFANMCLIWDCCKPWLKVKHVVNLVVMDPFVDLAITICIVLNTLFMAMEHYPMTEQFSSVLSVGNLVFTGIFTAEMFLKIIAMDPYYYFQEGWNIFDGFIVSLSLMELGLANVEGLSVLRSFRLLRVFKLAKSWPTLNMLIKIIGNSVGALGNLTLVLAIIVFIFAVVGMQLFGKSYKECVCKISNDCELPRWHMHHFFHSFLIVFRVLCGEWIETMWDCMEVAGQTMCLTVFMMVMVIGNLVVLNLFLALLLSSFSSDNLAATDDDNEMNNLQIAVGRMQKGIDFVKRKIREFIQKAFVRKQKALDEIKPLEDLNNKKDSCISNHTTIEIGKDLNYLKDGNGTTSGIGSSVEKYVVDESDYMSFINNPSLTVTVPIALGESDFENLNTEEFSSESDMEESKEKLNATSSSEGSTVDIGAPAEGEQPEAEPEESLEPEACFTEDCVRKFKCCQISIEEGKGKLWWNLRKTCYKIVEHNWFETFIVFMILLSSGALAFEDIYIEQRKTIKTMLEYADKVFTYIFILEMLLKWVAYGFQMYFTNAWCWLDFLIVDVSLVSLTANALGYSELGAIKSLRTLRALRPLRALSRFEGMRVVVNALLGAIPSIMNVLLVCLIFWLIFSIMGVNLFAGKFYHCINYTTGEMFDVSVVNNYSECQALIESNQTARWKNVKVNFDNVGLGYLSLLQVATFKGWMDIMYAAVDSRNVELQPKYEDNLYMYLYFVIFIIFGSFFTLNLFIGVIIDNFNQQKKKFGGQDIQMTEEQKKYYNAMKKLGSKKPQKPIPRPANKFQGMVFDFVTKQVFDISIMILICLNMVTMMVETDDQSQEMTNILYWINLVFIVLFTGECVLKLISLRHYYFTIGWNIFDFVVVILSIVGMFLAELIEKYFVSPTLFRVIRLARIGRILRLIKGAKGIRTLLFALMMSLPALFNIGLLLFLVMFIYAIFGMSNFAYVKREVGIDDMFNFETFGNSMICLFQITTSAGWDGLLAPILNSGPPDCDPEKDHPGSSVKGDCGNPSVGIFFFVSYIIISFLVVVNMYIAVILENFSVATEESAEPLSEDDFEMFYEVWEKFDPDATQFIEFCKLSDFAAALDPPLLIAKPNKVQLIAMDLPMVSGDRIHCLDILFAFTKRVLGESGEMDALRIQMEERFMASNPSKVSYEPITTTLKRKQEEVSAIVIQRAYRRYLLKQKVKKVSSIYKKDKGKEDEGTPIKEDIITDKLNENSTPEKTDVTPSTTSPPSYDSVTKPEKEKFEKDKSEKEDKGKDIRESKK
T1 sequence (Q00954 19-218 partner): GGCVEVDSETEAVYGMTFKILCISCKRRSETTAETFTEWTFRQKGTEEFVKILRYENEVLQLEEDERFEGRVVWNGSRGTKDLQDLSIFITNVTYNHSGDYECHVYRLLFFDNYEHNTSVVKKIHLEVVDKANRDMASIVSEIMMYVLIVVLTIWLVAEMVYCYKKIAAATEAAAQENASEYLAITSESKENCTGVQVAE

CC[C@H](C)[C@H](NC(=O)[C@H](CCCCN)NC(C)=O)C(=O)N[C@@H](Cc1ccccc1)C(=O)N[C@@H](CCSC)C(=O)N[C@@H](CCCCN)C(N)=O [KIFMK, acetyl-KIFMK-NH2]
block of the steady state sodium current ([1]; 100 μM KIFMK, voltage step from −100 to 0 mV): > 70% | koff ([1]; read-out: unblocking rate k u (= k off)): 342 ± 21 s⁻¹ | shift of the I-V relationship ([2]; 100 μM KIFMK compared with no peptide control, test voltages −80 to 110 mV): negative shift of the I-V relationship | voltage dependence of unblocking (off) rates ([2]; 100 μM KIFMK, −30 to 30 mV): voltage independent; also recorded: not affected by voltage; also recorded: no voltage dependence | mean unblocking rate k u over the voltage range ([2]; 100 μM KIFMK, −30 to 30 mV, mean ± SEM, n = 4): 336 ± 14 s⁻¹ | voltage constant of blocking rate fit, exp^(V/43 mV) ([2]; 100 μM KIFMK, e-fold factor of k b (Fig. 3 B) and k on (Scheme 1)): 43 mV | extent of the electric field traversed by the lysine charges ([2]; if both charges enter the electric field to an equivalent extent): 30% | K d from ratio of the on and off rates ([3]; outward sodium currents): ~30 µM | dependence of the on rate on peptide concentration [3]: deviated significantly from linearity | voltage dependence of block rate [3]: no voltage dependence of block rate was detected | types of block (sodium channels; cytoplasmic application): a rapid block, which occurs in milliseconds and resembles inactivation in kinetics and voltage dependence, and a cumulative, use-dependent block, which occurs during repetitive high voltage pulses | slow block (sodium channels): slow block that occurs at voltages more depolarized than 0 mV | state preference of block (sodium channels): appears to preferentially block open channels
